Source: patent US8394831B2, “Carbonylamino-derivatives as novel inhibitors of histone deacetylase” (Janssen Pharmaceutica, N.V., priority 2002, dated 2013)

Experiments:
[1] = target: histone deacetylase (HeLa nuclear extracts); experiment: In vitro assay for inhibition of histone deacetylase; assay type: biochemical; set-up: key: pIC50 = -log IC50; details: [3H]acetylated histone H4 peptide substrate
Method: The in vitro assay for inhibition of histone deacetylase (see example C.1) measures the inhibition of HDAC enzymatic activity obtained with the compounds of formula (I).
HeLa nuclear extracts (supplier: Biomol) were incubated at 60 μg/ml with 2×10^−8 M of radiolabeled peptide substrate. As a substrate for measuring HDAC activity a synthetic peptide, i.e. the amino acids 14-21 of histone H4, was used. The substrate is biotinylated at the NH2-terminal part with a 6-aminohexanoic acid spacer, and is protected at the COOH-terminal part by an amide group and specifically [^3H]acetylated at lysine 16. The substrate, biotin-(6-aminohexanoic)Gly-Ala-([^3H]-acetyl-Lys-Arg-His-Arg-Lys-Val-NH2), was added in a buffer containing 25 mM Hepes, 1 M sucrose, 0.1 mg/ml BSA and 0.01% Triton X-100 at pH 7.4. After 30 min the deacetylation reaction was terminated by the addition of HCl and acetic acid. (final concentration 0.035 mM and 3.8 mM respectively). After stopping the reaction, the free ^3H-acetate was extracted with ethylacetate. After mixing and centrifugation, the radioactivity in an aliquot of the upper (organic) phase was counted in a β-counter. For each experiment, controls (containing HeLa nuclear extract and DMSO without compound), a blank incubation (containing DMSO but no HeLa nuclear extract or compound) and samples (containing compound dissolved in DMSO and HeLa nuclear extract) were run in parallel. In first instance, compounds were tested at a concentration of 10^−5M. […] In each test the blank value was subtracted from both the control and the sample values. The control sample represented 100% of substrate deacetylation. For each sample the radioactivity was expressed as a percentage of the mean value of the controls. […] Herein the effects of test compounds are expressed as pIC50 (the negative log value of the IC50-value).

[2] = system: A2780 ovarian carcinoma cells; experiment: Antiproliferative activity on A2780 cells (MTT); assay type: cell-based, human; details: four days of incubation; for IC50: Homo sapiens, 96 h, read-out: Cellular activity pIC50 (converted)
Method: Cellular activity of the compounds of formula (I) was determined on A2780 tumour cells using a colorimetric assay for cell toxicity or survival (Mosmann Tim, Journal of Immunological Methods 65: 55-63, 1983)(see example C.2).
All compounds tested were dissolved in DMSO and further dilutions were made in culture medium. Final DMSO concentrations never exceeded 0.1% (v/v) in cell proliferation assays. Controls contained A2780 cells and DMSO without compound and blanks contained DMSO but no cells. MTT was dissolved at 5 mg/ml in PBS. A glycine buffer comprised of 0.1 M glycine and 0.1 M NaCl buffered to pH 10.5 with NaOH (1 N) was prepared (all reagents were from Merck).
The human A2780 ovarian carcinoma cells (a kind gift from Dr. T. C. Hamilton [Fox Chase Cancer Centre, Pennsylvania, USA]) were cultured in RPMI 1640 medium supplemented with 2 mM L-glutamine, 50 μg/ml gentamicin and 10% fetal calf serum. Cells were routinely kept as monolayer cultures at 37° C. in a humidified 5% CO2 atmosphere. Cells were passaged once a week using a trypsin/EDTA solution at a split ratio of 1:40. All media and supplements were obtained from Life Technologies. Cells were free of mycoplasma contamination as determined using the Gen-Probe Mycoplasma Tissue Culture kit (supplier: BioMérieux).
Cells were seeded in NUNC™ 96-well culture plates (Supplier: Life Technologies) and allowed to adhere to the plastic overnight. Densities used for plating were 1500 cells per well in a total volume of 200 μl medium. After cell adhesion to the plates, medium was changed and drugs and/or solvents were added to a final volume of 200 Following four days of incubation, medium was replaced by 200 μl fresh medium and cell density and viability was assessed using an MTT-based assay. To each well, 25 μl MTT solution was added and the cells were further incubated for 2 hours at 37° C. The medium was then carefully aspirated and the blue MTT-formazan product was solubilized by addition of 25 μl glycine buffer followed by 100 μl of DMSO. […] Within an experiment, the results for each experimental condition are the mean of 3 replicate wells. For initial screening purposes, compounds were tested at a single fixed concentration of 10^−6 M. For active compounds, the experiments were repeated to establish full concentration-response curves. For each experiment, controls (containing no drug) and a blank incubation (containing no cells or drugs) were run in parallel. The blank value was subtracted from all control and sample values. For each sample, the mean value for cell growth (in absorbance units) was expressed as a percentage of the mean value for cell growth of the control. […] Herein the effects of test compounds are expressed as pIC50 (the negative log value of the IC50-value).

[3] = Kinetic solubility in aqueous media; assay type: physicochemical; details: aqueous buffer, kinetic from dmso stock; phosphate citrate buffer pH 7.4, turbidity by nephelometer; read-out: Solubility Score
Method: Kinetic solubility in aqueous media measures the ability of a compound to stay in aqueous solution upon dilution (see example C.3).
DMSO-stock solutions are diluted with a single aqueous buffer solvent in 3 consecutive steps. For every dilution turbidity is measured with a nephelometer.
In the first dilution step, 10 μl of a concentrated stock-solution of the active compound, solubilized in DMSO (5 mM), was added to 100 μl phosphate citrate buffer pH 7.4 and mixed. In the second dilution step, an aliquot (20 μl) of the first dilution step was further dispensed in 100 μl phosphate citrate buffer pH 7.4 and mixed. Finally, in the third dilution step, a sample (20 μl) of the second dilution step was further diluted in 100 μl phosphate citrate buffer pH 7.4 and mixed. All dilutions were performed in 96-well plates Immediately after the last dilution step the turbidity of the three consecutive dilution steps were measured with a nephelometer. Dilution was done in triplicate for each compound to exclude occasional errors. Based on the turbidity measurements a ranking is performed into 3 classes. Compounds with high solubility obtained a score of 3 and for this compounds the first dilution is clear. Compounds with medium solubility obtained a score of 2. For these compounds the first dilution is unclear and the second dilution is clear.

| Enzyme activity pIC50 [1] | IC50 [2] [nM] | solubility [3] [µM] | melting point [°C] | Cellular activity pIC50 [2] | SMILES |
| --- | --- | --- | --- | --- | --- |
| 5.649 | 4510 | – | – | – | O=C(NO)c1ccc(N2CCC(NC(=O)c3ccc4ccccc4c3)CC2)cc1 [Co. No. 1] |
| 6.794 | 1790 | > 454 | – | – | COc1cc(C(=O)NC2CCN(c3ccc(C(=O)NO)cn3)CC2)nc2ccccc12 [Co. No. 2] |
| 8.103 | 132 | < 75.8 | 226 | – | O=C(NO)c1cnc(N2CCC(CNC(=O)c3ccc4ccccc4c3)CC2)nc1 [Co. No. 3] |
| 6.861 | – | – | – | 5.664 | O=C(NO)c1ccc(N2CCC(NC(=O)c3ccc4ccccc4c3)CC2)nc1 [compound 5] |
| 6.951 | – | – | – | 5.86 | O=C(NO)c1ccc(N2CCC(NC(=O)c3cc4ccccc4cn3)CC2)nc1 [compound 6] |
| 6.416 | – | – | – | 5.331 | Cn1c(C(=O)NC2CCN(c3ccc(C(=O)NO)cn3)CC2)cc2ccccc21 [compound 7] |
| 6.94 | – | – | – | 5.497 | O=C(NO)c1ccc(N2CCC(NC(=O)c3cc4cc(F)ccc4[nH]3)CC2)nc1 [compound 8] |
| 6.774 | – | – | – | 5.579 | Cn1cc(C(=O)NC2CCN(c3ccc(C(=O)NO)cn3)CC2)c2ccccc21 [compound 9] |
| 7.19 | – | – | – | 5.747 | COc1ccc2[nH]c(C(=O)NC3CCN(c4ccc(C(=O)NO)cn4)CC3)cc2c1 [compound 10] |
| 6.215 | – | – | – | <5 | O=C(NO)c1cnc(N2CC[C@H](O)[C@H](CNS(=O)(=O)c3ccc4ccccc4c3)C2)nc1 [compound 11] |
| 6.909 | – | – | – | 5.562 | O=C(CC(c1ccccc1)c1ccccc1)NC1CCN(c2ccc(C(=O)NO)cn2)CC1 [compound 12] |
| 7.061 | – | – | – | <5 | O=C(Cc1c[nH]c2ccccc12)NC1CCN(c2ccc(C(=O)NO)cn2)CC1 [compound 13] |
| 6.611 | – | – | – | 5.175 | O=C(NO)c1ccc(N2CCC(NC(=O)C3CCc4ccccc43)CC2)nc1 (centres unmarked) [compound 14] |
